Some targets named below: CDK2 (Homo sapiens, UniProt P24941); DYRK1A (Homo sapiens, UniProt Q13627); FES (Homo sapiens, UniProt P07332); KIT(D816H) (Homo sapiens, UniProt P10721, D816H); MET (Homo sapiens, UniProt P08581); MKNK2 (Homo sapiens, UniProt Q9HBH9); PDGFRB (Homo sapiens, UniProt P09619).
What all share (assay): biochemical
Design in all cases: DiscoveRx KINOMEscan active site-directed competition binding; percent of control kinase bound to immobilised ligand

The target in the next assay is T1, MEK5 (Homo sapiens, UniProt Q13163).
T1 construct: gene MAP2K5
T1 sequence (Q13163 1-448): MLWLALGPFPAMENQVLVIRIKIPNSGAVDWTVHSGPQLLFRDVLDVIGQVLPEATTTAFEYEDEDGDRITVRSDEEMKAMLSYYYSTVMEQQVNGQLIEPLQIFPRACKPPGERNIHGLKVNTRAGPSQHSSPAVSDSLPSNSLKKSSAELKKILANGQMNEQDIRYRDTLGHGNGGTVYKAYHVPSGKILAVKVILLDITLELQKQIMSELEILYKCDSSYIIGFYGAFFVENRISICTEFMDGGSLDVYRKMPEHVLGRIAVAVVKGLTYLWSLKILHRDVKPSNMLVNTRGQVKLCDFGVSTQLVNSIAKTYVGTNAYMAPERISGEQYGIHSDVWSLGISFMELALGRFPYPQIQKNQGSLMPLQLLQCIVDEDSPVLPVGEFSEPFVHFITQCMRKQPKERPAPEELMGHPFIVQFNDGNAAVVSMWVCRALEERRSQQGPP

Another assay addresses T2, TNK1 (Homo sapiens, UniProt Q13470).
T2 sequence (Q13470 1-666): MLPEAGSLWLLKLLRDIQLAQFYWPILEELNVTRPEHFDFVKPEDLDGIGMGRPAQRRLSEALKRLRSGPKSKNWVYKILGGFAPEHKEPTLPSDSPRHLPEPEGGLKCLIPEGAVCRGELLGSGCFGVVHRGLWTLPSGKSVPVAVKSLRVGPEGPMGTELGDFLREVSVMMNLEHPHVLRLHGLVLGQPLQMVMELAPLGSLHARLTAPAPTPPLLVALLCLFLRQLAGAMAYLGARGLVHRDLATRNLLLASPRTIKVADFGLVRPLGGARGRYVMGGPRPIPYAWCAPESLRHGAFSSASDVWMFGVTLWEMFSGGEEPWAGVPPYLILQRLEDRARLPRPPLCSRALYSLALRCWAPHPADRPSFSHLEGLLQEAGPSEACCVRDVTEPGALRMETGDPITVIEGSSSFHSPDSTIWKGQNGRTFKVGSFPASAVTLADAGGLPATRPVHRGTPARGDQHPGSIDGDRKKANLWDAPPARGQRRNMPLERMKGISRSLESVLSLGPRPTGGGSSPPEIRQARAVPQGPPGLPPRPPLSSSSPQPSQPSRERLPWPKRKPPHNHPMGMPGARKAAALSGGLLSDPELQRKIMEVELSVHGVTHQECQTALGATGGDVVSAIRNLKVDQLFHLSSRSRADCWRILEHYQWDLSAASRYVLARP

[1] abbreviates: read-out: Rucaparib / %Ctrl @ 10000nM, binding competition, % of control.
[2] abbreviates: read-out: Talazoparib (BMN 673) / %Ctrl @ 10000nM.
Where [3] appears, read: read-out: Niraparib (MK-4827) / %Ctrl @ 10000nM.
[4] abbreviates: read-out: Olaparib / %Ctrl @ 10000nM.

Molecules are shown by their SMILES. Where two headings read alike, the source gives them in different places.

Chain of KIT(D816H) (P10721 whole entry D816H): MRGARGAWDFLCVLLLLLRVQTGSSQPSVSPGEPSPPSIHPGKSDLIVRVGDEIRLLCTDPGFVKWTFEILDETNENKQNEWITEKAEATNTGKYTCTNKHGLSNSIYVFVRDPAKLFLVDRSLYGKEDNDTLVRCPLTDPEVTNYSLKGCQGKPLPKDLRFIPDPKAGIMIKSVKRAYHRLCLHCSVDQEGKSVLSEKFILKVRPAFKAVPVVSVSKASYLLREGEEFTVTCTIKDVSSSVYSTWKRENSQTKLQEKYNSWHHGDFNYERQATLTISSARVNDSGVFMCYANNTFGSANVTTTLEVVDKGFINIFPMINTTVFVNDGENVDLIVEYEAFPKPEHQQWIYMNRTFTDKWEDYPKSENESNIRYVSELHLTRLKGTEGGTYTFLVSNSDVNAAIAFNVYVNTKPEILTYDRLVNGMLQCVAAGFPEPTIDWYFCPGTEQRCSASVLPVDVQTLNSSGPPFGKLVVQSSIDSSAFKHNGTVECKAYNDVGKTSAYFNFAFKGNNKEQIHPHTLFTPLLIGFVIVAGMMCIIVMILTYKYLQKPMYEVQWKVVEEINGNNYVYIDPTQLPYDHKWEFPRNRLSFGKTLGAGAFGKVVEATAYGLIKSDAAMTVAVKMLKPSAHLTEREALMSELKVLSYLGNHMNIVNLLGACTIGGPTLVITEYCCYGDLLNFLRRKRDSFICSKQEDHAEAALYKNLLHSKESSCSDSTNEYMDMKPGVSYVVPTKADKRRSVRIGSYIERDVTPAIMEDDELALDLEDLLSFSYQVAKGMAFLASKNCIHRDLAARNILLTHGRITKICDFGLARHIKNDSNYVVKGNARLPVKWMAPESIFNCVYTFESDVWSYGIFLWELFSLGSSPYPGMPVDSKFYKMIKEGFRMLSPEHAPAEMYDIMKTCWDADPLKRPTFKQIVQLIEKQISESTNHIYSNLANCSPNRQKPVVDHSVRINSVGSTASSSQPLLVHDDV
Chain of PDGFRB (P09619 whole entry): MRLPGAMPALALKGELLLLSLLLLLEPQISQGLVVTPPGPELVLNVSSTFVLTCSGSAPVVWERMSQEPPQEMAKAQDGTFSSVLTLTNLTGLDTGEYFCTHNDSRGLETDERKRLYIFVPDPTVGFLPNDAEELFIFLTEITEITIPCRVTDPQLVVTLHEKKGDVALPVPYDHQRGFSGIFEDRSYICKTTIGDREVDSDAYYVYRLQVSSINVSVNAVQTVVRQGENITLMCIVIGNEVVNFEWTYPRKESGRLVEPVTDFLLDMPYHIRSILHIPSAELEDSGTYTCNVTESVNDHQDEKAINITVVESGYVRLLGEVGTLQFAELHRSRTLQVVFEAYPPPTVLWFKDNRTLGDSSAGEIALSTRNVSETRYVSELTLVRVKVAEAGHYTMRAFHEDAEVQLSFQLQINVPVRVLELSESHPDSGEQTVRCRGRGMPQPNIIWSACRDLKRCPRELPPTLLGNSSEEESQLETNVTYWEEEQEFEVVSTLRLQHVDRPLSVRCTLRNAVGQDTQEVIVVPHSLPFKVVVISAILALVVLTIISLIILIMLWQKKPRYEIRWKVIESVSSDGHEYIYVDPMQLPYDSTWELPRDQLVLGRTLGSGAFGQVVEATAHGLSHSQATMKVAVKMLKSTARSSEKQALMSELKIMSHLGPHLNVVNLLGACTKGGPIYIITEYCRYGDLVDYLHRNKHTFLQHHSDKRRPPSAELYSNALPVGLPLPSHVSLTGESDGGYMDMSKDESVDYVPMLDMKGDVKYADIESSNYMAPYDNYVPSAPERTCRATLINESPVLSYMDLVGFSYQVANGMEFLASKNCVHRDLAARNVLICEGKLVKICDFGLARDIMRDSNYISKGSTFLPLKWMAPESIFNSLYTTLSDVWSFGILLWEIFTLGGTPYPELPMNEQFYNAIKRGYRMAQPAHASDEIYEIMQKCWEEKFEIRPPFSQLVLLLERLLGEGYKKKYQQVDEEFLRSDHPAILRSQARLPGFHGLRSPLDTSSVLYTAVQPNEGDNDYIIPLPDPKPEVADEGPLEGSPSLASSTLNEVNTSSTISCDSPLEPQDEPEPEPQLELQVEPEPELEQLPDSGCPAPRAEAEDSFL
Chain of MKNK2 (Q9HBH9 whole entry): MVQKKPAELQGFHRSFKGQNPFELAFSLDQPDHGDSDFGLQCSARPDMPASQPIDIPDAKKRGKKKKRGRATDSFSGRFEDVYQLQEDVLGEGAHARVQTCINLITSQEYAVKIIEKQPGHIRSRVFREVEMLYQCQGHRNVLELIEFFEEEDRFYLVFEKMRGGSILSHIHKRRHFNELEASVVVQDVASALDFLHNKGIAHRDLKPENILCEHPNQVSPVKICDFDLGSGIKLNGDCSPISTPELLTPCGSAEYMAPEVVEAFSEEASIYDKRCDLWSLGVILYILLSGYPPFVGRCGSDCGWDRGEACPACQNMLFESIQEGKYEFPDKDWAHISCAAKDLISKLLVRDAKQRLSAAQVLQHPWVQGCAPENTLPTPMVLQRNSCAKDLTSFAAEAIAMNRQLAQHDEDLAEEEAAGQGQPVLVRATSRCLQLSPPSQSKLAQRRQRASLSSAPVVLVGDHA
Chain of MET (P08581 whole entry): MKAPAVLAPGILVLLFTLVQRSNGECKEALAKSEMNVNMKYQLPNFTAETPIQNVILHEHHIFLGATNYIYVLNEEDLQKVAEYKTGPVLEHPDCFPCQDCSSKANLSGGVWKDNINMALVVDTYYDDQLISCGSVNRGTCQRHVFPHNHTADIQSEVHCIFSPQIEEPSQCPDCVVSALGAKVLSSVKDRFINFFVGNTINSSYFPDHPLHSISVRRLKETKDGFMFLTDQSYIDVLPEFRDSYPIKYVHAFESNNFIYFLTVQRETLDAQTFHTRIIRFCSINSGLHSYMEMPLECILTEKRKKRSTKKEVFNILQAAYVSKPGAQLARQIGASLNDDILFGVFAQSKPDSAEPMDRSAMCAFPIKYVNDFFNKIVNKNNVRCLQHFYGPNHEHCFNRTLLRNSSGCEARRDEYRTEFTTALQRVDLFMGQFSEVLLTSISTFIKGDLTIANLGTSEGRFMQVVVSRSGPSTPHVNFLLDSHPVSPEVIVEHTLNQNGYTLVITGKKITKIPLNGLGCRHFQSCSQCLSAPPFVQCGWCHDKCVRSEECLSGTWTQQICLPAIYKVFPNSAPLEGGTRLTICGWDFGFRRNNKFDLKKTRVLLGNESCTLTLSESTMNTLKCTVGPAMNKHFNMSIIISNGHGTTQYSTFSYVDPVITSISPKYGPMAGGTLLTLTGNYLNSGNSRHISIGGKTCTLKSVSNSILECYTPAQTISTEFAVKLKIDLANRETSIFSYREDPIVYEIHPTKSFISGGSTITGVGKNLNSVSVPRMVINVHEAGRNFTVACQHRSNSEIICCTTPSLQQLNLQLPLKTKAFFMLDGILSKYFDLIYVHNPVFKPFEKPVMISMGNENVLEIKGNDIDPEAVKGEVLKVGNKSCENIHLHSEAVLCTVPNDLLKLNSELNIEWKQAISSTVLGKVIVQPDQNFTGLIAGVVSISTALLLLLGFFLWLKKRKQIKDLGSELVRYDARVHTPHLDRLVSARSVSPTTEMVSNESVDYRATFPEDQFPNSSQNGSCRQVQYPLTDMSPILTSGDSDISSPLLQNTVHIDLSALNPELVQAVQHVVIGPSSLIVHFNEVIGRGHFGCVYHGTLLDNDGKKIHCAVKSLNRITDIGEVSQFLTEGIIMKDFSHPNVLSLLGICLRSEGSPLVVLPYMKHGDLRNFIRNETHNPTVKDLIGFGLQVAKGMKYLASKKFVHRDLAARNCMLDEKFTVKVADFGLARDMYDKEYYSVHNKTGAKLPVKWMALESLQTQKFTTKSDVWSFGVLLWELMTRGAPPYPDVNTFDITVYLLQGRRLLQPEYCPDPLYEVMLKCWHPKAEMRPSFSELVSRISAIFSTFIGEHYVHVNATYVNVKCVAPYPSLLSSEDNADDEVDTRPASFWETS
Chain of FES (P07332 whole entry): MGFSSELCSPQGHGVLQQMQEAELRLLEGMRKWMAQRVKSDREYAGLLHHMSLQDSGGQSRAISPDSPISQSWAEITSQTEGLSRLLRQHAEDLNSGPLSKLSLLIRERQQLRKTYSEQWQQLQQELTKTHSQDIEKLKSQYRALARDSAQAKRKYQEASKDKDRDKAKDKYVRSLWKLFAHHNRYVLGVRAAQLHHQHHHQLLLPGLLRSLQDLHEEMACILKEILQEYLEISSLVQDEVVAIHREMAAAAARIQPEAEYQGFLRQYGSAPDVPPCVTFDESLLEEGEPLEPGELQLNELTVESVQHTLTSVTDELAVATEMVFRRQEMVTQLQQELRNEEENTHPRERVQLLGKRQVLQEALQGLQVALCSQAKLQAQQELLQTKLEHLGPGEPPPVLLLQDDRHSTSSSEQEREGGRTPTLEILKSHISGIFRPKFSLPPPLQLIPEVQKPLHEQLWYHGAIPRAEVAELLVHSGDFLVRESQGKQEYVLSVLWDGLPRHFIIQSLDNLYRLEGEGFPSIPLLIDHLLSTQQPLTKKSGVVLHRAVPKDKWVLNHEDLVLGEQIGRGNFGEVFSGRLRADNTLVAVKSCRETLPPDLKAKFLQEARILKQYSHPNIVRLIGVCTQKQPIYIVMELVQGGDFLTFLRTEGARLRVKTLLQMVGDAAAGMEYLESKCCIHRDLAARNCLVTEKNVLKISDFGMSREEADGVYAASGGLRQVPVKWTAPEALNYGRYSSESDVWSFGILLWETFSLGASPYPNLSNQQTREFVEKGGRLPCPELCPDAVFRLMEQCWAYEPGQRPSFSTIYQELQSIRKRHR

In the case of `CNCc1ccc(-c2[nH]c3cc(F)cc4c3c2CCNC4=O)cc1` [Rucaparib], the percent of control binding at 10 µM on CDK2 (setting [1]) came out at 98%; on DYRK1A (setting [1]) it was 0.4%; on FES (setting [1]), 94%; on KIT(D816H) (setting [1]) it was 82%; on MEK5 (setting [1]), 70%; on MET (setting [1]), 92%. Further, the percent of control binding at 10 µM on MKNK2 (setting [1]) is 38%; at PDGFRB (setting [1]), 98%; on TNK1 (setting [1]), 91%.

Take `Cn1ncnc1[C@H]1c2n[nH]c(=O)c3cc(F)cc(c23)N[C@@H]1c1ccc(F)cc1` [Talazoparib]: the percent of control binding at 10 µM at CDK2 (setting [2]) was 96%; at DYRK1A (setting [2]), 94%; at FES (setting [2]), 98%; on KIT(D816H) (setting [2]), 100%; at MEK5 (setting [2]), 51%; on MET (setting [2]), 99%. For the same compound, the percent of control binding at 10 µM at MKNK2 (setting [2]) stood at 80%; at PDGFRB (setting [2]) it was 99%; at TNK1 (setting [2]), 93%.

Take `NC(=O)c1cccc2cn(-c3ccc([C@@H]4CCCNC4)cc3)nc12` [Niraparib]: the percent of control binding at 10 µM is 100% at CDK2 (setting [3]); 0.2% at DYRK1A (setting [3]); 83% at FES (setting [3]); 94% at KIT(D816H) (setting [3]); 66% on MEK5 (setting [3]); 92% at MET (setting [3]). Also, the results for the percent of control binding at 10 µM on MKNK2 (setting [3]), at PDGFRB (setting [3]) and at TNK1 (setting [3]) were 71%, 90% and 56%, respectively.

Consider `O=C(c1cc(Cc2n[nH]c(=O)c3ccccc23)ccc1F)N1CCN(C(=O)C2CC2)CC1` [Olaparib], for which the percent of control binding at 10 µM worked out at 93% at CDK2 (setting [4]); 95% on DYRK1A (setting [4]); 92% at FES (setting [4]); 96% on KIT(D816H) (setting [4]); 77% at MEK5 (setting [4]); 91% on MET (setting [4]). Moreover, the percent of control binding at 10 µM at MKNK2 (setting [4]) was determined as 87%; on PDGFRB (setting [4]) it was 96%; at TNK1 (setting [4]), 95%.

The record behind these values is publication PMC7026418, “The kinase polypharmacology landscape of clinical PARP inhibitors” (Scientific Reports, 2020).
